Laboratory results published in paper PMC10054477, “Design, Synthesis, and Biological Evaluation of Sulfonamide Methoxypyridine Derivatives as Novel PI3K/mTOR Dual Inhibitors” (Pharmaceuticals, 2023).
Blank lines part the entries; values can stand above or below the molecule they belong to.

What was measured:
HCT-116 cells [1] = assay: CCK-8 cell viability assay, HCT-116; format: cell-based; settings: Homo sapiens, mean (n = 3)
Protocol: (§1) MCF-7 and HCT-116 cells were purchased from the Meilunbio Biotechnology Co., Ltd. (Dalian, China). Cells were cultured at 37 °C with 5% CO2, using DMEM or RPMI 1640 medium (Meilunbio, Dalian, China) with 10% (v/v) fetal bovine serum (Gibco, San Diego, CA, USA) and 1% (v/v) penicillin and streptomycin (Meilunbio, Dalian, China). CCK-8 assay was used to determine the inhibitory effect in vitro. In short, cells were incubated into 96-well plates at the rate of 5000 cells per well. After 24 h of incubation, 100 μL medium was added, which contained a specific concentration of the test compound. After 72 h, 10 μL CCK-8 regent was added and the plate was incubated at 37 °C, 5% CO2 for 1 h. The optical density of each hole at 450 nm was read by a BioTek TS-800 microplate reader. GraphPad Prism 9.3.1 software was used to calculate the IC50 value.

MCF-7 cells = assay: CCK-8 cell viability assay, MCF-7; format: cell-based; settings: Homo sapiens, MCF7, 72 h, mean (n = 3)
Protocol: as §1

PI3K = system: PI3K; parameters: method as in PMID 21388141; settings: read-out: enzyme inhibition; cited from earlier work
mTOR = target: T1, mTOR (Homo sapiens, UniProt P42345); assay: LANCE Ultra assay, mTOR inhibition; format: biochemical; settings: mean (n = 2)
T1 construct: purchased Millipore 14-770
Protocol: The inhibitory activity of 22c on mTOR was determined by LANCE Ultra assay. In short, to a solution of kinase buffer, compound solution, ULight-4E-BP1 (Thr37/46) peptide substrate (PE, Catalog No. TRF0128-M), ATP, and mTOR protein (Millipore, Burlington, MA, USA, Catalog No. 14-770) were added. It was transferred to a 384-well plate and incubated at room temperature for 30 min. The LANCE detection buffer was added, which contained EDTA and Eu-antiphos-4E-BP1 (Thr37/46) antibody (PE, catalog number TRF0216-M). The plate was balanced at ambient temperature for 1 h, and the signal was detected via PerkinElmer Envision plate reader.

PI3Kα = target: T2, PI3Kα (Homo sapiens, UniProt P42336); assay: ADP-Glo kinase assay, PI3Kα enzyme inhibition; format: biochemical; settings: for inhibition at 0.001 µM: at 1 nM
T2 construct: purchased SignalChem P27-122DH
Protocol: The enzymatic inhibitory assays of all target compounds against PI3Kα were performed with the ADP-Glo assay (Promega, Madison, WI, USA, catalog No. V9102/3). Briefly, compounds were continuously diluted to a certain concentration. […] The mixture was added to a 96-well plate and incubated in a dark place at ambient temperature for 40 min. Then, the kinase reaction was stopped by adding of ADP-Glo reagent and the plate was incubated again at ambient temperature for another 40 min. The kinase detection reagent was added and the signal was collected via PerkinElmer Envision plate reader (PE, Boston, MA, USA).

PI3Kγ = target: PI3Kγ; parameters: method as in PMID 30582807; settings: cited from earlier work
HCT-116 cells [2] = assay: Flow cytometry analysis of cell cycle via PI staining; format: cell-based; settings: 24 h, dose-dependent
Protocol: (§2) Hoechst 33342/PI staining was used to detect cell survival and apoptosis, and flow cytometry (FACS Verse, BD, Piscataway, NJ, USA) was used to measure cell cycle and survival. Briefly, HCT-116 cells were seeded in 6-well plates and cultured with 22c at different concentrations for 24 h. As for the Hoechst 33342/PI staining assay, staining buffer with Hoechst 33342/PI was added into each plate and incubated at 4 °C for 30 min. After washing with PBS, the stained cells were observed by fluorescence microscope (IX73, Olympus, Tokyo, Japan). As for detection of cell apoptosis by flow cytometry, cells were stained with Annexin V-FITC/PI. As for cell cycle assay, the cells were fixed with 70% ethanol at 4 °C overnight, and stained with PI/RNase solution for 30 min at 37 °C. All assays were measured by flow cytometry and analyzed by Flowjo 7.6.

HCT-116 cells [3] = assay: Flow cytometry analysis of apoptosis via Annexin V-FITC/PI staining; format: cell-based; settings: 24 h
Protocol: as §2

HCT-116 cells [4] = assay: Hoechst 33342/PI staining of survival and apoptosis; format: cell-based; settings: 24 h
Protocol: as §2

[5] = system: phosphorylation of AKT in HCT-116 cells; assay: Western blot of AKT phosphorylation; format: cell-based; settings: 24 h
Protocol: HCT-116 cells were cultured in 100 mm culture dish to 70~80%, and treated with compound 22c at a specified concentration for 24 h. Then, the cells were scraped off with cell scraper, collected into a precooled 1.5 mL centrifuge tube, and lysed with RIPA buffer (Cwbio, Taizhou, China) containing PMSF (1 mM), NaF (1 mM), Na3VO4 (1 mM). The cells were lysed at 4 °C for 30 min, and the concentration of protein was determined by the BCA assay kit (Meilunbio, Dalian, China). Then the protein samples (40 μg) were used to conduct SDS-PAGE electrophoresis (Electrophoresis equipment: BIO-RAD, Hercules, CA, USA; Prefabricated-gel: ACE, Shanghai, China). After electrophoresis, the protein was transferred to PVDF membranes ([…], Millipore, USA). It was sealed with 5% non-fat milk for 1.5 h, washed with TBST for 4 times, and incubated with primary antibody at 4 °C overnight. Then, membranes were recovered to room temperature, washed with TBST for 4 times and incubated with secondary antibody (Huabio, Hangzhou, China) at room temperature for 1.5 h. After incubating, the membranes were washed with TBST for 4 times, visualized with an Amersham Imager 680 (GE, Windsor, CT, USA) through the enhanced ECL detection kit (Meilunbio, Dalian, China). […]

T2 sequence (P42336 whole entry): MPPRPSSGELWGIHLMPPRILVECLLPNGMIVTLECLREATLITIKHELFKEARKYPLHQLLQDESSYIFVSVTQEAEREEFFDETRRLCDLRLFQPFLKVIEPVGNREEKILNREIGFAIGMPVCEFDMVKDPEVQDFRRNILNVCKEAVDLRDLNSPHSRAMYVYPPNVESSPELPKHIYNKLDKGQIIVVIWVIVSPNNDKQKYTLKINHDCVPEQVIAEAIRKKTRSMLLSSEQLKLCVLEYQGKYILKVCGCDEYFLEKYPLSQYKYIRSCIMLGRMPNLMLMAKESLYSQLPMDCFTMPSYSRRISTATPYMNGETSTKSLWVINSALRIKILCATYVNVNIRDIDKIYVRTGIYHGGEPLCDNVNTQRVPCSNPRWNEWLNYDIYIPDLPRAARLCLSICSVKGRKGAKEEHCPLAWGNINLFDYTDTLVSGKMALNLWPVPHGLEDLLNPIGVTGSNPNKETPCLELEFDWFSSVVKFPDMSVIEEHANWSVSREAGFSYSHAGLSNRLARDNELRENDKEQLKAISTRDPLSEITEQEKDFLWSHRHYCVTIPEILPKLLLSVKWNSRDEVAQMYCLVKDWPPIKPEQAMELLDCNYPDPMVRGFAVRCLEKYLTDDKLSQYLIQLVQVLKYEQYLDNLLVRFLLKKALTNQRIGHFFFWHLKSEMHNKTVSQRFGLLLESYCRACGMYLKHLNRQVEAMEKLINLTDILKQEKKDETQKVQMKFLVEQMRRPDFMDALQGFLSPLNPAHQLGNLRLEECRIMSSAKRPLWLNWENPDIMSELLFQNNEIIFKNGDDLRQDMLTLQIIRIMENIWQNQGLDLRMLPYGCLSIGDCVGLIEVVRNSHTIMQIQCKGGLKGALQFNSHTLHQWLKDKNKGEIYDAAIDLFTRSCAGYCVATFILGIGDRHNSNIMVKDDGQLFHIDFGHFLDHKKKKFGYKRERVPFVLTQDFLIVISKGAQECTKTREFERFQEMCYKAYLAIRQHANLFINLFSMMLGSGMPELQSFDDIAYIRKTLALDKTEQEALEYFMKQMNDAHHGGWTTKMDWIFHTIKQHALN
T2 sequence (P27986 whole entry partner): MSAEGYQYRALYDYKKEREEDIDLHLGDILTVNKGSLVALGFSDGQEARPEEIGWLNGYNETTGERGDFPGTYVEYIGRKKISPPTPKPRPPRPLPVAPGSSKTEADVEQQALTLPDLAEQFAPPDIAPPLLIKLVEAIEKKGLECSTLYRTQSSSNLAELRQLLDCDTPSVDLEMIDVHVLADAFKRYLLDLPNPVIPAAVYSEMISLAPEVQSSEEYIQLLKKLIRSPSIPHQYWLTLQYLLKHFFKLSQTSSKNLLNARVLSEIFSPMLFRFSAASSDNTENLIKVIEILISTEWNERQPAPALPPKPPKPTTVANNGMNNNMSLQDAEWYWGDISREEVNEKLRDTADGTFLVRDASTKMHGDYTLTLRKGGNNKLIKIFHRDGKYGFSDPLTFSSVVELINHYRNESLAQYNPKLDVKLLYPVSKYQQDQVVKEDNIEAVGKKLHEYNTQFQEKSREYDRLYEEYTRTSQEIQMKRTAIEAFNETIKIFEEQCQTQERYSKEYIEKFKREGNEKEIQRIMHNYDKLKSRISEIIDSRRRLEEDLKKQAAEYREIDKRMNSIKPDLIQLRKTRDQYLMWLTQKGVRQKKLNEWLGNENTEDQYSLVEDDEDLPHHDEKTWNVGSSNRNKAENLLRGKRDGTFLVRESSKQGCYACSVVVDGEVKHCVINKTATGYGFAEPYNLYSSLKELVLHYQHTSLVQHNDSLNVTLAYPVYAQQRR
T1 sequence (P42345 1362-2549 limits assumed): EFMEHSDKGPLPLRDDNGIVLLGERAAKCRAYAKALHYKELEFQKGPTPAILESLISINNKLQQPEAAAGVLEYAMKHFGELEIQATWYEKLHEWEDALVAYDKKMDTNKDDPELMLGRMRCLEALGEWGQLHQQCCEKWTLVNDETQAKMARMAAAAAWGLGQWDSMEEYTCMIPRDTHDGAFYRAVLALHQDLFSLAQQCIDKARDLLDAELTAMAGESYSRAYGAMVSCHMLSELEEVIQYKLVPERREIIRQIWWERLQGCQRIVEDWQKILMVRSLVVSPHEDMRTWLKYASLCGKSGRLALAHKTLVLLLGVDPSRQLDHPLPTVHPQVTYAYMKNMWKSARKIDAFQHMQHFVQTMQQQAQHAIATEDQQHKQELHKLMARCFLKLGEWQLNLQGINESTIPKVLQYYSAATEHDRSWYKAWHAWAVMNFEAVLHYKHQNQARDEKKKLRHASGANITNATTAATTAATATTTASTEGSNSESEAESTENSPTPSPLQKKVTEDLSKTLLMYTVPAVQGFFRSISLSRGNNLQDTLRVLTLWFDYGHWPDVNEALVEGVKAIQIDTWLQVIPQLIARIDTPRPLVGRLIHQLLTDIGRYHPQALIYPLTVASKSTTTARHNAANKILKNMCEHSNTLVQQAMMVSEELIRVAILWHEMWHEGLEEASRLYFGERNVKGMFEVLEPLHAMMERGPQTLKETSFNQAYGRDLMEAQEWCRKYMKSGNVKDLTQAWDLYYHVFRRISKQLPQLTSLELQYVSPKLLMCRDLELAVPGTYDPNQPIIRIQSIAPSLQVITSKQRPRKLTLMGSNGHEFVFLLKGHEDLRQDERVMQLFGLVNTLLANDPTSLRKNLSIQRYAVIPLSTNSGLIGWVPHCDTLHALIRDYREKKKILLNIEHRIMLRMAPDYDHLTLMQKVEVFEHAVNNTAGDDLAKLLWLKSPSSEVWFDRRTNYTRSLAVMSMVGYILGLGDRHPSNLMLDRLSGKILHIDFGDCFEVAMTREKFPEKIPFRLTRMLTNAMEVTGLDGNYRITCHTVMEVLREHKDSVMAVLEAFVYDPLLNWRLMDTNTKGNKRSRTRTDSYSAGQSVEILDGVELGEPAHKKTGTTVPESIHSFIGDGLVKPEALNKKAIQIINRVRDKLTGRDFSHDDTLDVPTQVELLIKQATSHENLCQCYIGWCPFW

IC50 (HCT-116 cells [1]; Table 1, 72 h): 0.19 ± 0.05 µM
IC50 (MCF-7 cells; Table 1): 1.76 ± 0.44 µM
IC50 (mTOR): 110 nM
Structure (SMILES): CCOC(=O)c1cnc2ccc(-c3cncc(NS(=O)(=O)c4ccccc4)c3)cn12 [HS-173, reference compound]

IC50 (HCT-116 cells [1]; Table 1, 72 h): 0.02 ± 0.01 µM
inhibition at 0.001 µM (PI3Kα; Table 1): 89%
IC50 (MCF-7 cells; Table 1): > 4 µM
Structure (SMILES): COc1ncc(-c2ccc3nccc(-c4ccnnc4)c3c2)cc1NS(=O)(=O)c1ccc(F)cc1F [Omipalisib, reference compound]

IC50 (HCT-116 cells [1]; Table 3, 72 h): 0.02 ± 0.01 µM
inhibition at 0.001 µM (PI3Kα; Table 3): 82%
IC50 (PI3Kα; mean (n = 2)): 0.22 nM
IC50 (MCF-7 cells; Table 3): 0.13 ± 0.03 µM
IC50 (mTOR): 23 nM
Structure (SMILES): COc1ncc(-c2ccc3nccc(-c4ncc(C(=O)NC(C)C)o4)c3c2)cc1NS(=O)(=O)c1ccc(F)cc1F [22c, 2-(6-(5-((2,4-difluorophenyl)sulfonamido)-6-methoxypyridin-3-yl)quinolin-4-yl)-N-isopropyloxazole-5-carboxamide]
cell cycle arrest (HCT-116 cells [2]): inhibited the cell cycle in G0/G1 phase
Q1 of Annexin V-FITC/PI plot (HCT-116 cells [3]; 0.25 μM): 1.95
Q2 of Annexin V-FITC/PI plot (HCT-116 cells [3]; 0.25 μM): 14.1
Q3 of Annexin V-FITC/PI plot (HCT-116 cells [3]; 0.25 μM): 0.080
Q4 of Annexin V-FITC/PI plot (HCT-116 cells [3]; 0.25 μM): 83.9
Q1 of Annexin V-FITC/PI plot (HCT-116 cells [3]; 1 μM): 3.13
Q2 of Annexin V-FITC/PI plot (HCT-116 cells [3]; 1 μM): 38.0
Q3 of Annexin V-FITC/PI plot (HCT-116 cells [3]; 1 μM): 0.14
Q4 of Annexin V-FITC/PI plot (HCT-116 cells [3]; 1 μM): 58.7
Q1 of Annexin V-FITC/PI plot (HCT-116 cells [3]; 4 μM): 2.69
Q2 of Annexin V-FITC/PI plot (HCT-116 cells [3]; 4 μM): 58.3
Q3 of Annexin V-FITC/PI plot (HCT-116 cells [3]; 4 μM): 0.17
Q4 of Annexin V-FITC/PI plot (HCT-116 cells [3]; 4 μM): 38.9
apoptosis (flow cytometry), in words (HCT-116 cells [3]; dose-dependent): induce apoptosis
apoptosis and necrosis (Hoechst33342/PI staining) (HCT-116 cells [4]): could significantly affect apoptosis and necrosis of HCT-116 cells
phosphorylation of AKT (Western blot) [5]: could block the phosphorylation process of AKT at low concentrations

IC50 (HCT-116 cells [1]; Table 2, 72 h): > 1 µM
inhibition at 0.001 µM (PI3Kα; Table 2): 22%
IC50 (MCF-7 cells; Table 2): > 1 µM
Structure (SMILES): COc1ncc(-c2cnc3ncnc(NCC4CCCCC4)c3c2)cc1NS(=O)(=O)c1ccc(F)cc1F [17k, N-(5-(4-((cyclohexylmethyl)amino)pyrido[2,3-d]pyrimidin-6-yl)-2-methoxypyridin-3-yl)-2,4-difluorobenzenesulfonamide]
